Values after ≈ are worked out from the molar mass of the structure shown. Where two headings read alike, the source gives them in different places.
Key:
[1] = system: herpes simplex virus type 1 (Miyama strain); assay: Antiviral activity against HSV-1 in vitro, inhibition of virus-induced CPE in GMK cells (Test Example 1); type: cell-based, HSV-1 (Miyama strain); settings: Human alphaherpesvirus 1, GMK cells, 1% fetal bovine serum, read-out: Antiviral Activity (ΔTCID₅₀(log₁₀))
Protocol: (§1) Confluent GMK cells (derived from green monkey kidney) in 96-well plates were infected with HSV-1 (Miyama strain) in the presence of various concentrations of test compounds. […] The virus titer (TCID₅₀) was determined from CPE of virus infected culture. Antivirus effects of test compounds were calculated from TCID₅₀ values of test compound treated and control cultures and represented by ΔTCID₅₀(log₁₀). Test compounds were dissolved in MEM medium, ethanol or DMSO to 10 mg/ml, and diluted with MEM medium supplemented with 1% fetal bovineserum.

HSV-1 (Miyama strain) = assay: Anti HSV-1 activity in vivo, intraperitoneally infected mice; parameters: species or system Male BALB/c mice; settings: 322 PFU (10LD₅₀) HSV-1
Protocol: Male BALB/c mice (5 weeks of age) were intraperitoneally infected with 322 PFU (plaque forming unit, 10LD₅₀) of HSV-1 (Miyama strain). Twenty one days later, survival ratio and mean survival days were evaluated. Test compounds were dispersed in 5% arabic gum/physiological saline, and intraperitoneally administered at 10 mg and 20 mg/kg. Treatment began just after virus inoculation and continued for 5 days.

HIV = assay: Inhibition of HIV-induced cytopathogenicity in MT-4 cells; type: cell-based
Protocol: MT-4 cells (lymphoma derived from human T cell leukemia) in 96-well plate were infected with […] in the presence of various concentrations of test compounds. After incubation, inhibitory effect of HIV-induced CPE by the test compounds and cytotoxicity were microscopically observed. […]
Further, since the compounds of the present invention have a chemical structure different from the conventional antiviral substances, it is useful for the prevention or treatment of the infectious diseases caused by viruses resistant to the conventional antiviral substances.

GMK cells [2] = assay: Cytotoxicity observed microscopically in GMK cells (Test Example 1); type: cell-based, green monkey; settings: GMK cells, in parentheses
Protocol: as §1
In Table 1, parentheses indicate the cytotoxicity of these compounds. (-) and (±) indicate no cytotoxicity and slight cytotoxicity, respectively.

MT-4 cells = assay: Minimum cytotoxic concentration in MT-4 cells; type: cell-based, human
Protocol: MT-4 cells (lymphoma derived from human T cell leukemia) in 96-well plate were infected with […] in the presence of various concentrations of test compounds. After incubation, inhibitory effect of HIV-induced CPE by the test compounds and cytotoxicity were microscopically observed. […] TABLE 6 In Table 6, parentheses indicate the minimum cytotoxic concentration of test compounds.

[3] = system: herpes simplex virus type 1 (Miyama strain); assay: Antiviral activity against HSV-1 in vitro, inhibition of virus-induced CPE in GMK cells (Test Example 2); type: cell-based, HSV-1 (Miyama strain); settings: 0.5% fetal bovine serum
Protocol: (§2) Confluent GMK cells (derived from green monkey kidney) in 96-well plates were infected with HSV-1 (Miyama strain) in the presence of various concentrations of test compounds. After incubation, virus-induced cytopathic effect (CPE), inhibitory effect of CPE by the test compound and cytotoxicity were microscopically observed. The virus titer (TCID₅₀) was determined from CPE of virus infected culture. Ancivirus effects of test compounds were calculated from TCID₅₀ values of test compound treated and control cultures and represented by ΔTCID₅₀(log₁₀). Test compounds were dissolved in MEM medium, ethanol or DMSO to 10 mg/ml, and diluted with MEM medium supplemented with 0.5% fetal bovine serum.

GMK cells [4] = assay: Cytotoxicity observed microscopically in GMK cells (Test Example 2); type: cell-based, green monkey; parameters: key: -: no cytotoxicity; ±: slight cytotoxicity; +: cytotoxicity with observable antiviral effect; settings: in parentheses
Protocol: as §2
In Table 4, parentheses indicate the cytotoxicity of these compounds. (-), (±) and (+) indicate no cytotoxicity, slight cytotoxicity and cytotoxicity with observable antiviral effect, respectively.

[5] = 10 mg/kg intraperitoneally for 5 days
[6] = 20 mg/kg intraperitoneally for 5 days
[7] = Human immunodeficiency virus 1, MT-4 cells, minimum inhibitory concentration, read-out: Anti-HIV Activity (MIC, µg/ml)

MIC (HIV; Human immunodeficiency virus 1, read-out: Anti-HIV Activity (MIC, µg/ml)) | Structure (SMILES) | log reduction at 10 µg/mL [1] | Mean Survival Days (HSV-1 (Miyama strain); [5]) | Survival Ratio at 21 days (%) (HSV-1 (Miyama strain); [5]) | Mean Survival Days (HSV-1 (Miyama strain); [6]) | Survival Ratio at 21 days (%) (HSV-1 (Miyama strain); [6]) | MIC (HIV; [7]) | cytotoxicity (GMK cells [2]; 10 µg/ml) | minimum cytotoxic concentration (MT-4 cells; MT-4 cells, in parentheses) | log reduction at 5 µg/mL ([1]; 5 µg/ml) | cytotoxicity (GMK cells [2]; 5 µg/ml) | Antiviral Activity (ΔTCID₅₀(log₁₀)) ([3]; 5 µg/ml) | Antiviral Activity (ΔTCID₅₀(log₁₀)) ([3]; 10 µg/ml) | cytotoxicity (GMK cells [4]; 5 µg/ml) | cytotoxicity (GMK cells [4]; 10 µg/ml) | minimum cytotoxic concentration (MT-4 cells)
 | CCCCC/C=C\C/C=C\CCCCCCCC(=O)N1CCN(c2ccccc2Cl)CC1 [Compound of Example 8, 1-(2-Chlorophenyl)-4-[(Z,Z)-9,12-octadecadienoyl]piperazine] | 2 | 13.7 ± 1.6 days | 20% | 16.4 ± 2.0 days | 40% | 16 µg/mL (≈ 34.8 µM) | - | > 125 µg/mL |  |  |  |  |  |  | 
 | CCCCCCCC(=O)N1CCN(c2ccccc2Cl)CC1 [Compound of Example 9, 1-(2-Chlorophenyl)-4-octanoylpiperazine] | > 3 | 14.2 ± 1.5 days | 20% | 18.7 ± 1.8 days | 60% | > 125 µg/mL | ± | > 250 µg/mL | 0.83 | - |  |  |  |  | 
 | COc1cc2c(=O)n(N3CCN(c4ccccc4C(F)(F)F)CC3)ncc2c(OC)c1OC [Compound of Example 19, 2-[4-(2-Trifluoromethylphenyl)-1-piperazinyl]-5,6,7-trimethoxy-1(2H)-phthalazinone] |  |  |  |  |  | 31 µg/mL (≈ 66.7 µM) |  | > 125 µg/mL |  |  | 1.17 log₁₀ | > 3.00 log₁₀ | - | + | 
 | CCCCCCCC(=O)N1CCN(c2ccccc2C(F)(F)F)CC1 [Compound of Example 16, 1-(2-Trifluoromethylphenyl)-4-octanoylpiperazine] |  |  |  |  |  | > 63 µg/mL |  | 125 µg/mL |  |  | 2.16 log₁₀ | > 3.00 log₁₀ | - | + | 
8 µg/mL (≈ 14.8 µM) | CC[C@@]12C=C(C(=O)OCCN3CCN(c4ccccc4OC)CC3)n3c4c(c5ccccc53)CCN(CCC1)[C@H]42 [Compound of Example 27, (3α,16α)-Eburunamenine-14-carboxylic acid 2-[4-(2-methoxyphenyl)piperazine-1-yl]ethyl ester] |  |  |  |  |  |  |  |  |  |  | 1.00 log₁₀ | 3.00 log₁₀ | - | ± | 63 µg/mL
